From patent US7045283B2, “Methods of high-throughput screening for internalizing antibodies” (The Regents of the University of California, priority 2000, dated 2006) come the findings set out here.

≈ marks a conversion by molar mass, not a printed value. A value given as a limit tells only on which side of the number the result lay.

Data set [1] can be described thus: Methotrexate encapsulation by reverse phase evaporation (direct sequestration) and leakage. It is filed as physicochemical.
A short description of another data set: in vitro. Conditions: BEND-3 endothelial cells expressing VEGF receptor.

One may read the IC50 as the point on the concentration scale where inhibition reaches its midpoint. The low end stands for inhibition by little substance, the high end for a need for much substance.

Protocol for in vitro: Bovine endothelial cells (BEND-3) expressing vascular endothelial growth factor (VEGF) receptor were incubated (37° C., 6 hours) in the growth medium containing 0.03–90 microgram/mL of the free (i.e. non-encapsulated) vinorelbine, or vinorelbine encapsulated in the Ni-NTA-PEG-DSPE liposomes with or without 0.02 mg/niL of the intemalizing anti-VEGER scFv antibody 4G7 having a hexahistidine tag and a terminal cysteine group. The cells were post-incubated in the growth medium without the drug for another 72 hours, and the viability of the cells was determined by a conventional tetrasolium (MTT) assay.

Consider `CN(Cc1cnc2nc(N)nc(N)c2n1)c1ccc(C(=O)N[C@@H](CCC(=O)O)C(=O)O)cc1` [free methotrexate, methotrexate], for which the MTX loading efficiency in data set [1] was 28.7–29.5%. Besides, the IC50 at 6 h in the data set “in vitro” was over 90 µg/mL. `CCC1=C[C@@H]2CN(C1)Cc1c([nH]c3ccccc13)[C@@](C(=O)OC)(c1cc3c(cc1OC)N(C)[C@H]1[C@@](O)(C(=O)OC)[C@H](OC(C)=O)[C@]4(CC)C=CCN5CC[C@]31[C@@H]54)C2` [free vinorelbine, vinorelbine] yielded an IC50 at 6 h in “in vitro” of 0.67 µg/mL (≈ 0.86 µM).
